Holding throughout (test): pIC50, kinobeads binding competition
The target of assay [1] is UniProt Q05655. In short, it runs like this:
(§1)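 pIC50 was obtained by fitting fold changes against vehicle to logistic dose-response curves with the R drc package, using biological duplicates. Kinobeads-bound proteins were digested and measured by TMT10 LC-MS/MS. Before this, either living Jurkat cells received nine compound concentrations (top 30 μM, 1:4 steps) for 60 min at 37 °C prior to lysis, or Jurkat lysate or a 1:1:1:1 HEK293/K-562/HepG2/placenta lysate mix received nine concentrations (top 30 μM, 1:5 steps) for 60 min at 4 °C.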

Assay [2] has as its target UniProt Q9H0K1. In short, it runs like this:
as §1

In assay [3] the target is T1, TP53RK (UniProt Q96S44).
T1 sequence (whole entry): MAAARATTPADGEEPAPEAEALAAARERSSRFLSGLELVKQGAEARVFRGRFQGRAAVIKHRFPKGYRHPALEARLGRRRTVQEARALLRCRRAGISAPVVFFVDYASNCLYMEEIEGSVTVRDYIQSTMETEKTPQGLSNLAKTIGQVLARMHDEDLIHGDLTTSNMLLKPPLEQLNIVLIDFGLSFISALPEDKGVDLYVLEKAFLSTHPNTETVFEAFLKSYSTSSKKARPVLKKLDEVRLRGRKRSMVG
In short, it runs like this:
as §1

For assay [4], the target named is PCTK3 (UniProt Q07002). In short, it runs like this: as §1
Assay [5] addresses UniProt P27448. In short, it runs like this: as §1
Assay [6] deals with CDK5 (UniProt Q00535). In short, it runs like this: as §1
For assay [7], the target named is RIPK2 (UniProt O43353). The conditions noted are these: cell material: Lysate mix. In short, it runs like this:
as §1

Assay [8] deals with T2, EPHB2 (UniProt P29323).
T2 sequence (whole entry): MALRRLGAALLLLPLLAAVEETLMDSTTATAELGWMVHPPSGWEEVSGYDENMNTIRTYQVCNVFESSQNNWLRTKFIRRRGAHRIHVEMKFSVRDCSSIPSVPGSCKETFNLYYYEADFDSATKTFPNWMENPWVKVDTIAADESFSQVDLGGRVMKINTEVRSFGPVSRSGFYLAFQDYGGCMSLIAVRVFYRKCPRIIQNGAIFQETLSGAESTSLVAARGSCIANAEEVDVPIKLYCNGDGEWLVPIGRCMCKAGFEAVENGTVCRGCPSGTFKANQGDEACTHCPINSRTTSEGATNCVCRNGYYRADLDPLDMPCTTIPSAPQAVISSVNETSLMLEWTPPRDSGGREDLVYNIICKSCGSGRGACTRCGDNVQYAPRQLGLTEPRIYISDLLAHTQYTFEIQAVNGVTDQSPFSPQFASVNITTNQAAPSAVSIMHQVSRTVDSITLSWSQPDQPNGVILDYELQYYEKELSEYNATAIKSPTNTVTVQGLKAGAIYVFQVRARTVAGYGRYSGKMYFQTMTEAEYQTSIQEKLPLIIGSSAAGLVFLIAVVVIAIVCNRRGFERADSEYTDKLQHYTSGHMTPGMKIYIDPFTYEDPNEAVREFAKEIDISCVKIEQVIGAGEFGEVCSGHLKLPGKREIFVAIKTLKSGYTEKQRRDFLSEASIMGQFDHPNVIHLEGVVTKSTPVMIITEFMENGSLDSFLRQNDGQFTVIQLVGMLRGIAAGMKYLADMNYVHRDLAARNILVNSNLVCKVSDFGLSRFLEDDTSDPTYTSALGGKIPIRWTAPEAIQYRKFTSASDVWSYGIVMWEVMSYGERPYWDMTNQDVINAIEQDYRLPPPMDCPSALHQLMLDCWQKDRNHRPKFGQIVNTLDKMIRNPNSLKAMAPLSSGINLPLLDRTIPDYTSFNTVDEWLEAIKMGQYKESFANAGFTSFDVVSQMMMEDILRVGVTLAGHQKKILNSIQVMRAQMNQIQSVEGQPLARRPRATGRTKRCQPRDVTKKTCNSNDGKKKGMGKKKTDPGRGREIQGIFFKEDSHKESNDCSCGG
In short, it runs like this:
as §1

Assay [9] addresses UniProt Q9BVS4. In short, it runs like this:
as §1

Assay [10] addresses UniProt P48730. In short, it runs like this: as §1
The target of assay [11] is LIMK1 (UniProt P53667). In short, it runs like this:
as §1

The target in assay [12] is T3, UniProt Q9UEE5.
T3 sequence (whole entry): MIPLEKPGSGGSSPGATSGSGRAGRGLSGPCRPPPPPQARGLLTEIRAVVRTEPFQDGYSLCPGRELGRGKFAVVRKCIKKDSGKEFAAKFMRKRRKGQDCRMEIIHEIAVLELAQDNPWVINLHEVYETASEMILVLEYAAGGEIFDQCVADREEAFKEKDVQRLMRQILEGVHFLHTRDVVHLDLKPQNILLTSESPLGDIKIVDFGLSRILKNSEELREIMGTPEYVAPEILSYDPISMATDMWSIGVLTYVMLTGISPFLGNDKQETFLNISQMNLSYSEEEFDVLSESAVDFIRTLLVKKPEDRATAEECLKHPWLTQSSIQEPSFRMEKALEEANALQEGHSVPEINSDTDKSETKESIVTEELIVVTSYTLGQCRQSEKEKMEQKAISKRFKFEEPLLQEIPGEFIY
In short, it runs like this: as §1

In assay [13] the target is T4, PHKG2 (UniProt P15735).
T4 sequence (whole entry): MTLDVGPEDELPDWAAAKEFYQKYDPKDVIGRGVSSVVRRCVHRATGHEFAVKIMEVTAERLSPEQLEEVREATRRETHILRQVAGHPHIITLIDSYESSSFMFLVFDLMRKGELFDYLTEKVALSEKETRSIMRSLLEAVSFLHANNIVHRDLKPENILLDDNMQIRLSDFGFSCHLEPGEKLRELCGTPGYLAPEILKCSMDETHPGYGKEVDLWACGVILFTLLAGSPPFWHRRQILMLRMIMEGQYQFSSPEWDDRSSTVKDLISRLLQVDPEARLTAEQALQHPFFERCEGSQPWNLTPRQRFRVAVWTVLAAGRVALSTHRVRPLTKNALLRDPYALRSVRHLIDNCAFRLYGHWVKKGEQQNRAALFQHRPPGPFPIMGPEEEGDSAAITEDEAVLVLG
In short, it runs like this:
as §1

SMILES strings stand for the structures.

The term pIC50 denotes the IC50 on a negative log10 scale, so that one unit is a factor of ten. High values mean a small IC50, low ones a large IC50.

Chain of RIPK2 (O43353 whole entry): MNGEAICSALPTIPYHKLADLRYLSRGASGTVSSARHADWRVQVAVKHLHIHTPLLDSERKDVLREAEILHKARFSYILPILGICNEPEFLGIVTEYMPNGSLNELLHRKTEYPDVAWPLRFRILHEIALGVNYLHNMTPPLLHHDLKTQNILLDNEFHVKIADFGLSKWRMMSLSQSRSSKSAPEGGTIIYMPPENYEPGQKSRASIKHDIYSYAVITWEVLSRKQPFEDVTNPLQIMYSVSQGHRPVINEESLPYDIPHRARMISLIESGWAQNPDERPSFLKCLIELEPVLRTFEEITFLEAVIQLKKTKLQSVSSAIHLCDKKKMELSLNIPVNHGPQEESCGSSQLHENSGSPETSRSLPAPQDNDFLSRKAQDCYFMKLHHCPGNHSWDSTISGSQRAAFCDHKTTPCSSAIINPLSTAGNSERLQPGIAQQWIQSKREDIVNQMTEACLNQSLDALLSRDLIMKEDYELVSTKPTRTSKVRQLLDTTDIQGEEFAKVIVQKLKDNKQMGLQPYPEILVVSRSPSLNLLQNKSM
Chain of PCTK3 (Q07002 whole entry): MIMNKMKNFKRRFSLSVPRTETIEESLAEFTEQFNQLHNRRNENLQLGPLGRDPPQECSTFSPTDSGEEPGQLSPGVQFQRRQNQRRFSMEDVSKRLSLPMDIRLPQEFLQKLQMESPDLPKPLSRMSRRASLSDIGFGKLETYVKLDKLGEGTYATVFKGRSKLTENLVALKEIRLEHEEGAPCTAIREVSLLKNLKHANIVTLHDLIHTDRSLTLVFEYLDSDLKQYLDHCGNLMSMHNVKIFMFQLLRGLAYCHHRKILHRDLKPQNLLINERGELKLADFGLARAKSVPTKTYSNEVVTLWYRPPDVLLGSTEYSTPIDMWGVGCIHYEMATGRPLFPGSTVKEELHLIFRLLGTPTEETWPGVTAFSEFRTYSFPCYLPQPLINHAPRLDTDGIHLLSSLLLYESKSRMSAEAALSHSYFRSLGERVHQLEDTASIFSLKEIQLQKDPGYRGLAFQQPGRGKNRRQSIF
Chain of UniProt Q05655 (Q05655 whole entry, looked up): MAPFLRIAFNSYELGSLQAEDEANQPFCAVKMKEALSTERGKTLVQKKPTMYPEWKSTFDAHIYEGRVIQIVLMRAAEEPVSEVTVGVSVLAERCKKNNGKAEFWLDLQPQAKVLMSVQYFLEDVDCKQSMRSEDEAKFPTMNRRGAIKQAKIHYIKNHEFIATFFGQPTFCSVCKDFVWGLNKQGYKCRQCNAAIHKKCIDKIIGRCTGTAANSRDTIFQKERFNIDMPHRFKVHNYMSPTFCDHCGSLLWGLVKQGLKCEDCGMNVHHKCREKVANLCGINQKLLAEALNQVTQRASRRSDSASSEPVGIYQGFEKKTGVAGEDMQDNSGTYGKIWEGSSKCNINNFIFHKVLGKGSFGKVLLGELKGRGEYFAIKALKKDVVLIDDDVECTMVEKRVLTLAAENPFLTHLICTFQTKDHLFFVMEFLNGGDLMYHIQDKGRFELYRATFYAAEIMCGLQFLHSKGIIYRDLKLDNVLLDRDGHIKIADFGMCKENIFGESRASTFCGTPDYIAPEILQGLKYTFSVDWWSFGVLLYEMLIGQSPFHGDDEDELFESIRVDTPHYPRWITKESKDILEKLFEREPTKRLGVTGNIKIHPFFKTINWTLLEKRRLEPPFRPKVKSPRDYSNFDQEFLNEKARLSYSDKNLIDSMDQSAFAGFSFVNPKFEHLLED
Chain of CDK5 (Q00535 whole entry, looked up): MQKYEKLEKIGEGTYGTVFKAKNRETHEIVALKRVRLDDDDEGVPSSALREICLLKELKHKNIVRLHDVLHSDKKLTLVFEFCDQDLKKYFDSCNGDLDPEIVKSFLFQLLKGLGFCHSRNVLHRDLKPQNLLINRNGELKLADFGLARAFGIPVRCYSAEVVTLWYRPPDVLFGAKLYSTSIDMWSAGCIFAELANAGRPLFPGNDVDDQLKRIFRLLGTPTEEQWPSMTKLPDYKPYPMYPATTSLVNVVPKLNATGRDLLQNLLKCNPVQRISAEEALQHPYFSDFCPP
Chain of LIMK1 (P53667 whole entry, looked up): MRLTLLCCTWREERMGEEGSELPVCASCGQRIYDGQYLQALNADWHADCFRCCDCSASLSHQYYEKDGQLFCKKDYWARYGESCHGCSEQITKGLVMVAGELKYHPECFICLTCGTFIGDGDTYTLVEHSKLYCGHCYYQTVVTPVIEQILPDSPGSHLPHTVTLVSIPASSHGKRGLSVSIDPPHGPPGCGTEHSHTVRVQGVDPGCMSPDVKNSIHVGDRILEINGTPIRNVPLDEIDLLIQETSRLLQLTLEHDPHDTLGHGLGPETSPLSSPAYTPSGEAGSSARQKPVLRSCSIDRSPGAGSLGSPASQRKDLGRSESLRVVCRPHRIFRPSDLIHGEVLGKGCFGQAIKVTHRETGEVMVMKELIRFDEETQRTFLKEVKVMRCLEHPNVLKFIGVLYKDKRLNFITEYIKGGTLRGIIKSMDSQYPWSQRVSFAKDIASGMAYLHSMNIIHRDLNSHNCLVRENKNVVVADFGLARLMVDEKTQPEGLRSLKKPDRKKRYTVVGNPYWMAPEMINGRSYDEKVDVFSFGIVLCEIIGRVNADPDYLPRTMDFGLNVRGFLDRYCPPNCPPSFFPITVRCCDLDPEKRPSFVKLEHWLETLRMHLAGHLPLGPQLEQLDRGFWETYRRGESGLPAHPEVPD
Chain of UniProt Q9BVS4 (Q9BVS4 whole entry, looked up): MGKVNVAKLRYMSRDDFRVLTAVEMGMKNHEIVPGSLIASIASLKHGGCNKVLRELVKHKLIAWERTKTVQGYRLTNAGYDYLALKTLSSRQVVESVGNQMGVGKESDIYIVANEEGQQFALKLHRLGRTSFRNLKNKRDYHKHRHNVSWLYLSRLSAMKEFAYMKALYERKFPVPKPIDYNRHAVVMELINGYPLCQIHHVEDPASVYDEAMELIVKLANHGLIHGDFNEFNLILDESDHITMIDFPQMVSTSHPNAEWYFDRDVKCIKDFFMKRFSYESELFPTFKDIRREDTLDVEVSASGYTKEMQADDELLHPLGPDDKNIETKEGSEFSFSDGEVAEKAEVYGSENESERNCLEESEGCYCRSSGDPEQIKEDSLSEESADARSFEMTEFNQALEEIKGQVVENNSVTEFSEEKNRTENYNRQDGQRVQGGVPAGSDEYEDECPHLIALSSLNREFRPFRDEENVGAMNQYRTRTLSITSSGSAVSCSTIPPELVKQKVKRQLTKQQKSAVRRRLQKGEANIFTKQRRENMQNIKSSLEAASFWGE
Chain of UniProt P27448 (P27448 whole entry, looked up): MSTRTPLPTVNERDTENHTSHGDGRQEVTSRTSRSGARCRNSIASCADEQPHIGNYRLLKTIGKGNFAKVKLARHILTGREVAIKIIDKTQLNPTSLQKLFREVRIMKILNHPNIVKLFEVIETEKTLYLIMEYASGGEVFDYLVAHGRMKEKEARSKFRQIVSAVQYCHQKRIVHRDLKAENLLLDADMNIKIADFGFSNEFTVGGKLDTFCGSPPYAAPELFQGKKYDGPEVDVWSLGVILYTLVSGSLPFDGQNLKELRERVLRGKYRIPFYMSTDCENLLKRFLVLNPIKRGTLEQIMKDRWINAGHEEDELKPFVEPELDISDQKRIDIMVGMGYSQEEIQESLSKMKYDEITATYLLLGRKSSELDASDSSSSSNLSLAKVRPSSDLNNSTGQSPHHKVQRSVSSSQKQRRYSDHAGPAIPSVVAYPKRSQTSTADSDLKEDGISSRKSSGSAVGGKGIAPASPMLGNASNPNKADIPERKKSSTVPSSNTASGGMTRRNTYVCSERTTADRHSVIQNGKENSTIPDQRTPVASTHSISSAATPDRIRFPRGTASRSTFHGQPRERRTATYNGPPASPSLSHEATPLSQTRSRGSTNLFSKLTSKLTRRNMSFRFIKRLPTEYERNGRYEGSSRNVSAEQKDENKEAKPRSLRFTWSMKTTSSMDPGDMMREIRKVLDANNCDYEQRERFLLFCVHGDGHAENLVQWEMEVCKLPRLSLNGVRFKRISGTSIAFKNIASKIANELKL
Chain of UniProt P48730 (P48730 whole entry, looked up): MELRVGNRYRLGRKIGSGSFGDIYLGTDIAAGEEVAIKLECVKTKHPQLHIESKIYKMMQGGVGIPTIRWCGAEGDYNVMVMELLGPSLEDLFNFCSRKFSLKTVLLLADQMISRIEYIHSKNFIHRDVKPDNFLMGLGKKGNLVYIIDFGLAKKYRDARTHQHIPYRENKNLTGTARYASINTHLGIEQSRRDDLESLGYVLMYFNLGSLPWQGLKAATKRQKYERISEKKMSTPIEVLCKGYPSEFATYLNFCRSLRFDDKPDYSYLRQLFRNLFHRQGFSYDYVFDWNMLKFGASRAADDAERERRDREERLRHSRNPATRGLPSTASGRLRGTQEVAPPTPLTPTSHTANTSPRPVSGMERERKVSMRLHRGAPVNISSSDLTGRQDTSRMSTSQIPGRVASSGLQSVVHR

With `O=C(NCCNC(=O)c1cc(Nc2cc(C3CC3)[nH]n2)nc(N2CCN(Cc3ccc(S(=O)(=O)F)cc3)CC2)n1)OC1CC/C=C/CCC1` (centres undefined), the pIC50 was 5.19 in assay [1] (cell material: Jurkat cells); less than 4.52 in assay [1] (cell material: Jurkat lysate); less than 4.52 in assay [1] (cell material: Lysate mix); 5.62 in assay [2] (cell material: Jurkat cells); less than 4.52 in assay [2] (cell material: Jurkat lysate); less than 4.52 in [2] (cell material: Lysate mix). The pIC50 was less than 4.52 in assay [3] (cell material: Jurkat cells); less than 4.52 in [3] (cell material: Jurkat lysate); less than 4.52 in [3] (cell material: Lysate mix); 5.7 in assay [4] (cell material: Jurkat cells); less than 4.52 in assay [4] (cell material: Jurkat lysate); less than 4.52 in [4] (cell material: Lysate mix). For the same molecule, the pIC50 was less than 4.52 in assay [5] (cell material: Jurkat lysate); less than 4.52 in [5] (cell material: Lysate mix); 6.34 in [6] (cell material: Jurkat cells); 5.1 in assay [6] (cell material: Jurkat lysate); 5.12 in assay [6] (cell material: Lysate mix); less than 4.52 in assay [7]. Further, the pIC50 in [8] (cell material: Jurkat cells), in [8] (cell material: Jurkat lysate), in [8] (cell material: Lysate mix), in assay [9] (cell material: Jurkat cells), in assay [9] (cell material: Jurkat lysate) and in assay [9] (cell material: Lysate mix) was less than 4.52 each time. Moreover, the pIC50 in [10] (cell material: Jurkat cells) was less than 4.52; in assay [10] (cell material: Jurkat lysate), less than 4.52; in assay [10] (cell material: Lysate mix), less than 4.52; in [11] (cell material: Jurkat cells), 6.66; in assay [12] (cell material: Jurkat lysate), less than 4.52; in assay [12] (cell material: Lysate mix) it was less than 4.52. Also, the pIC50 in assay [13] (cell material: Jurkat cells), in [13] (cell material: Jurkat lysate) and in assay [13] (cell material: Lysate mix) was less than 4.52 throughout.
Take `Cc1cc(Nc2cc(C(=O)NCCNC(=O)OC3CC/C=C/CCC3)nc(N3CCN(Cc4ccc(S(=O)(=O)F)cc4)CC3)n2)n[nH]1` (centres undefined): the negative-log IC50 (pIC50) in [1] (cell material: Lysate mix) was less than 4.52; in assay [2] (cell material: Lysate mix), less than 4.52; in assay [3] (cell material: Lysate mix), less than 4.52; in assay [4] (cell material: Lysate mix), less than 4.52; in assay [5] (cell material: Lysate mix), less than 4.52; in [6] (cell material: Lysate mix), 4.92. The pIC50 in [7], in [8] (cell material: Lysate mix), in [9] (cell material: Lysate mix), in assay [10] (cell material: Lysate mix), in assay [11] (cell material: Lysate mix) and in assay [12] (cell material: Lysate mix) was less than 4.52 throughout. Also, the pIC50 in assay [13] (cell material: Lysate mix) was less than 4.52.
`CCNC(=O)c1cc(Nc2cc(C)[nH]n2)nc(N2CCN(Cc3ccc(S(=O)(=O)F)cc3)CC2)n1`: the pIC50 in assay [1] (cell material: Lysate mix) was less than 4.52; in assay [2] (cell material: Lysate mix), less than 4.52; in assay [3] (cell material: Lysate mix), less than 4.52; in assay [4] (cell material: Lysate mix) it was less than 4.52; in assay [5] (cell material: Lysate mix), less than 4.52; in assay [6] (cell material: Lysate mix) it was 5.93. In addition, the pIC50 in assay [7] is less than 4.52; in [8] (cell material: Lysate mix) it was less than 4.52; in assay [9] (cell material: Lysate mix) it was less than 4.52; in assay [10] (cell material: Lysate mix), less than 4.52; in assay [11] (cell material: Lysate mix), 5.74; in [12] (cell material: Lysate mix), less than 4.52. Besides, the pIC50 in [13] (cell material: Lysate mix) was less than 4.52.

(Values after the supplement of paper PMC12076712.)
